The values below are quoted from earlier work in patent publication US20210353574A1, “Softgels with solid or gel-like polymeric fill matrix” (Bayer HealthCare LLC, priority 2018, published 2021).

The conditions of this data set: used as an analgesic.

For `COc1ccc2cc([C@H](C)C(=O)O)ccc2c1` [Naproxen], the minimum effective dose was 200 mg.

Take `COc1ccc2cc([C@H](C)C(=O)O)ccc2c1` [naproxen sodium]: the minimum effective dose is 220 mg.
